Data taken from US7803930B2, “Antisense modulation of apolipoprotein B-expression” (Isis Pharmaceuticals, Inc., priority 2002, dated 2010).
In the oligonucleotide strings, read from the 5' end, every base follows the letter of its sugar. An asterisk marks phosphorothioate; unmarked linkages are phosphodiester. Other units and linkages are bracketed, terminal groups are in braces. A string of capitals states the bases alone. e = 2'-O-(2-methoxyethyl) (MOE); [5mC] = 5-methylcytosine; d = 2'-deoxy (DNA)

Tested on: human apolipoprotein B mRNA
Assay: Inhibition of human apolipoprotein B mRNA levels in HepG2 cells, quantitative real-time PCR
Assay type: cell-based
Details: for % INHIB / % INHIB 50 nm / % INHIB 150 nm / % inhibition of apolipoprotein B mRNA levels / % Change in apolipoprotein B mRNA expression: HepG2 cells; for % INHIB (inhibition of human apolipoprotein B mRNA levels): HepG2 cells treated with 150 nM of compound, quantitative real-time PCR; for % inhibition of apolipoprotein B mRNA levels: normalized to untreated control, average of two experiments; for % Change in apolipoprotein B mRNA expression: 24 hour (Table 41)
Summary of the method: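 Apolipoprotein B transcript was quantified by one-step TaqMan RT-PCR, normalized to GAPDH or RiboGreen RNA, and expressed as percent inhibition against an untreated-sample standard curve. HepG2 cells were harvested 16-24 h after oligonucleotide exposure, which was delivered with 3.75 μg/mL Lipofectin over 4-7 h at 80% confluency.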

[1] = human apolipoprotein B mRNA, oligonucleotides targeting genomic sequence SEQ ID NO 334, averages from two experiments
[2] = 50 nm oligonucleotide, variable deoxy gap position
[3] = 150 nm oligonucleotide, variable deoxy gap position
[4] = Table 1, 150 nM, averages from two experiments
[5] = Table 17 variable gap, 50 nM, averages from three experiments
[6] = Table 17 variable gap, 150 nM, averages from three experiments

Substance	% INHIB [1] [%]	% INHIB (inhibition of human apolipoprotein B mRNA levels) (averages from two experiments) [%]	also measured
301084 (antisense eA*e[5mC]*eA*e[5mC]*eG*dG*dT*dA*dT*d[5mC]*d[5mC]*dT*dA*dT*dG*eG*eA*eG*eG*eA) [compound 301084]	49		
301082 (antisense e[5mC]*eT*eA*eT*eG*d[5mC]*dA*dG*dA*dG*dT*dG*dT*dG*dG*eT*e[5mC]*eT*eT*eG) [compound 301082]	41		
308635 (GCCTCAGTCTGCTTCGCACC; 10-10-0 MOE gapmer, phosphorothioate, chemistry not fully specified) [compound 308635]			% INHIB 50 nm [2]: 69%; % INHIB 150 nm [3]: 93%
301035 (eT*eT*e[5mC]*eT*eG*d[5mC]*dT*dT*dA*dT*dA*dG*dT*d[5mC]*dT*eA*e[5mC]*eT*eG*e[5mC]; antisense) [compound 301035]		82	
281640 (e[5mC]*eA*eG*eT*eG*d[5mC]*dA*dT*d[5mC]*dA*dA*dT*dG*dA*d[5mC]*eA*eG*eA*eT*eG; antisense) [compound 281640]		87	
147781 (antisense eA*e[5mC]*e[5mC]*eG*eA*dG*dA*dA*dG*dG*dG*d[5mC]*dA*d[5mC]*dT*e[5mC]*eA*eG*e[5mC]*e[5mC]) [compound 147781]			% INHIB [4]: 35%
281597 (eG*eG*eT*eA*eG*dG*dT*dG*dA*d[5mC]*d[5mC]*dA*d[5mC]*dA*dT*e[5mC]*eT*eA*eT*e[5mC]; antisense) [compound 281597]		36	
308618 (eA*eG*eG*e[5mC]*eT*d[5mC]*d[5mC]*dT*dT*dT*dT*dA*dG*dG*dT*eT*eA*e[5mC]*e[5mC]*eA; antisense) [compound 308618]			% INHIB 50 nm (Table 11 gene walk, 50 nM, averages from two experiments): 61%; % INHIB 150 nm (Table 11 gene walk, 150 nM, averages from two experiments): 77%
281642 (eG*e[5mC]*e[5mC]*eT*e[5mC]*dA*d[5mC]*dT*dA*dG*d[5mC]*dA*dA*dT*dA*eG*eT*eT*e[5mC]*e[5mC]; antisense) [compound 281642]		59	
271042 (eA*eG*eT*eT*eT*d[5mC]*d[5mC]*dT*d[5mC]*dA*dT*d[5mC]*dA*dG*dA*eT*eT*e[5mC]*e[5mC]*e[5mC]; antisense) [compound 271042]		57	
301172 (antisense eT*eA*eA*eT*eG*dT*dG*dT*dT*dG*d[5mC]*dT*dG*dG*dT*eG*eA*eA*eG*eA) [compound 301172]	35		
301073 (e[5mC]*eT*eG*eT*eT*d[5mC]*dT*d[5mC]*d[5mC]*dA*d[5mC]*d[5mC]*d[5mC]*dA*dT*eA*eT*e[5mC]*eA*eG; antisense) [compound 301073]	37		
271030 (e[5mC]*eA*eG*eT*eT*dA*dG*dA*dA*d[5mC]*dA*d[5mC]*dT*dG*dT*eG*eG*e[5mC]*e[5mC]*e[5mC]; antisense) [compound 271030]		52	
301078 (eT*eT*eT*eT*eA*dA*dA*dA*dT*dT*dA*dG*dA*d[5mC]*d[5mC]*e[5mC]*eA*eA*e[5mC]*e[5mC]; antisense) [compound 301078]	22		
281591 (eT*eG*e[5mC]*e[5mC]*eA*d[5mC]*dA*dT*dT*dG*d[5mC]*d[5mC]*d[5mC]*dT*dT*e[5mC]*e[5mC]*eT*e[5mC]*eG; antisense) [compound 281591]		90	
270986 (antisense e[5mC]*eT*e[5mC]*e[5mC]*eA*d[5mC]*dT*dG*dG*dA*dA*d[5mC]*dT*d[5mC]*dT*e[5mC]*eA*eG*e[5mC]*e[5mC]) [compound 270986]		0	
301157 (eG*e[5mC]*e[5mC]*eT*eG*dG*d[5mC]*dA*dA*dA*dA*dT*dT*d[5mC]*dT*eG*e[5mC]*eA*eG*eG; antisense) [compound 301157]	37		
308651 (antisense GCCTCAGTCTGCTTCGCGCC; 7-10-3 2'-MOE gapmer, phosphorothioate, chemistry not fully specified) [compound 308651]			% inhibition of apolipoprotein B mRNA levels (12.5 nM oligonucleotide): 57%; % inhibition of apolipoprotein B mRNA levels (37 nM oligonucleotide): 76%; % inhibition of apolipoprotein B mRNA levels (75 nM oligonucleotide): 84%; % inhibition of apolipoprotein B mRNA levels (150 nM oligonucleotide): 90%; % inhibition of apolipoprotein B mRNA levels (300 nM oligonucleotide): 88%; % INHIB 50 nm [5]: 87%; % INHIB 150 nm [6]: 88%

Substance	% INHIB [1] [%]	% INHIB (inhibition of human apolipoprotein B mRNA levels) (averages from two experiments) [%]	also measured
301148 (eA*eG*eA*eA*eA*dT*dT*dT*d[5mC]*dA*d[5mC]*dT*dA*dG*dA*eT*eA*eG*eA*eT; antisense) [compound 301148]	31		
301195 (antisense eG*eA*eA*eT*eT*dG*dA*dG*dA*d[5mC]*dA*dA*d[5mC]*dT*dT*eG*eA*eT*eT*eT) [compound 301195]	26		
331022 (antisense GCCTCAGTCTGCTTCGCAC; sugars from the 5' end e5 d10 e4, all phosphorothioate, methylation of C not given here) [compound 331022]			% Change in apolipoprotein B mRNA expression (10 nM): −33%; % Change in apolipoprotein B mRNA expression (50 nM): −49%; % Change in apolipoprotein B mRNA expression (150 nM): −87%
301213 (antisense eT*eA*eG*eA*eA*d[5mC]*d[5mC]*dA*dT*dG*dT*dT*dT*dG*dG*eT*e[5mC]*eT*eT*e[5mC]) [compound 301213]	35		
271034 (e[5mC]*eA*e[5mC]*eT*eG*dA*dA*dG*dA*d[5mC]*d[5mC]*dG*dT*dG*dT*eG*e[5mC]*eT*e[5mC]*eT; antisense) [compound 271034]		35	
147790 (antisense eT*eG*eT*eG*e[5mC]*dT*dA*d[5mC]*d[5mC]*dA*dT*d[5mC]*d[5mC]*d[5mC]*dA*eT*eA*e[5mC]*eT*eT) [compound 147790]			% INHIB [4]: 33%
281648 (eG*e[5mC]*eA*eG*eG*dT*d[5mC]*d[5mC]*dA*dG*dT*dT*d[5mC]*dA*dT*eA*eT*eG*eT*eG; antisense) [compound 281648]		81	
301053 (eG*eT*e[5mC]*eG*e[5mC]*dA*dT*d[5mC]*dT*dT*d[5mC]*dT*dA*dA*d[5mC]*eG*eT*eG*eG*eG; antisense) [compound 301053]	45		
147833 (antisense eA*eT*eG*eA*eT*dA*d[5mC]*dA*d[5mC]*dA*dA*dT*dA*dA*dA*eG*eA*e[5mC]*eT*e[5mC]) [compound 147833]			% INHIB [4]: 25%
271011 (antisense eG*eT*e[5mC]*eT*eG*dG*d[5mC]*dA*dA*dT*d[5mC]*d[5mC]*d[5mC]*dA*dT*eG*eT*eT*e[5mC]*eT) [compound 271011]		51	
308636 (GCCTCAGTCTGCTTCGCGCC; all C 5-methyl, all phosphorothioate, sugars by position not given here; further chemistry not fully specified) [compound 308636]			% INHIB 50 nm [5]: 81%; % INHIB 150 nm [6]: 91%
301079 (eT*eG*eA*e[5mC]*eT*dG*dT*dT*dT*dT*dA*dA*dA*dA*dT*eT*eA*eG*eA*e[5mC]; antisense) [compound 301079]	20		
301126 (eG*eG*e[5mC]*eT*eA*dA*dT*dA*dA*dA*dT*dA*dG*dG*dG*eT*eA*eG*eT*eT; antisense) [compound 301126]	22		
147818 (antisense eA*eG*eT*eG*eA*dT*dG*dG*dA*dA*dG*d[5mC]*dT*dG*d[5mC]*eG*eA*eT*eA*e[5mC]) [compound 147818]			% INHIB [4]: 30%
281643 (eG*eA*e[5mC]*eA*eT*dT*dT*dG*d[5mC]*d[5mC]*dA*dT*dG*dG*dA*eG*eA*eG*eA*eG; antisense) [compound 281643]		61	
308637 (AGGTTACCAGCCACATGCAG; 1-10-9 MOE gapmer, phosphorothioate, chemistry not fully specified) [compound 308637]			% INHIB 50 nm [2]: 79%; % INHIB 150 nm [3]: 95%
301114 (antisense eT*eG*e[5mC]*eA*e[5mC]*dA*dG*dA*dG*dG*dT*dG*d[5mC]*dA*dA*eG*eA*eT*eG*eT) [compound 301114]	16		
301133 (eA*eA*eG*eA*eA*dA*dA*dT*dG*dG*d[5mC]*dA*dT*d[5mC]*dA*eG*eG*eT*eT*eT; antisense) [compound 301133]	13		
